“And” between values parts separate entries of the source, which are not always exact repeats. Equal values may be shown once.
Test: Iodide quenching of camptothecin fluorescence
Format: physicochemical
Description: Additional evidence that the fluorochrome of the camptothecin drugs penetrates into the membrane of the liposome comes from iodide quenching data. Iodide has an immeasurably small permeation of the liposome membrane and is able to discriminate between camptothecin drug molecules free in solution and those molecules located in the interior of the liposome membrane. These methods have been described in detail in Burke and Tritton, Biochemistry (1985) 24: 5972-5980; G. L. Jendrasiak, Chem. Phys. Lipids 9: 133-146 (1992); and, M. Cranney et al. Biochem. Biophys. ACTA 735, 418-425, which are incorporated herein by reference. The quenching studies were conducted using 0.5M iodide in PBS buffer.
The quenching of fluorescence of both camptothecin free in PBS and liposome membrane bound camptothecin by iodide ions was conducted at a constant halide concentration of 0.5M, in the presence of 2 mM sodium thiosulfate to prevent the oxidation of iodide. The camptothecin concentration was 1×10^-6 M and the iodide concentration was varied from 0 to 0.5M, and the chloride concentration was adjusted accordingly. The quenching experiments for the camptothecin bound to DMPC or DMPG liposome membranes were done at a lipid concentration of 100 mg/mL, so that the fraction of the bound camptothecin was more than 97%.
Fluorescence of the liposome membrane bound camptothecin is quenched to relatively lower extent, for instance, F0 /F, for camptothecin bound to DMPC liposomes is only 4.1 (see Plot C). Also, there is a clear cut upward curvature in the F0 /F vs. [I] plot (curve "A", […]) for camptothecin free in PBS whereas F0 /F vs. [I] plot for camptothecin bound with DMPC membranes is linear. Quenching of fluorescence is believed to proceed via the dynamic (or collisional) and static quenching processes. Fluorescence quenching by a quencher molecule in contact with the fluorophore at the instant of excitation is considered to be static quenching. The static and dynamic quenching processes are separated by the following modified form of the Stern-Volmer equation (Eftink & Ghiron, 1976): […]
where, V is the static quenching constant and Ksv the dynamic or collisional quenching constant. The V and Ksv values were obtained by fitting the quenching data to equation 3 with a value of V which gave the best correlation coefficient for the plot of F0 /Fe^v[Q] vs. [Q]. The upward curvature of the quenching data of free camptothecin free in PBS seen in FIG. 8 could be attributed to the static quenching process. The straight line "B", which is tangential to the F0 /F vs. [I] plot for free camptothecin in PBS, represents the dynamic part of the iodide quenching of camptothecin fluorescence, the slope of which is equal to Ksv (slope=44 3M^-1 where V=14M^-1 correlation coefficient=0.9993). The Stern-Volmer plot for the liposome bound camptothecin is linear, curve "C", FIG. 8, the slope being 6.1M^-1. […] The dashed line represents the static and dynamic quenching components camptothecin free in solution is determined by F0 /F values.

[1] = bound to DMPC liposomes, iodide

## CC[C@@]1(O)C(=O)OCc2c1cc1n(c2=O)Cc2cc3ccccc3nc2-1 [camptothecin]
DMPC or DMPG, lipid 100 mg/mL
  fraction of bound camptothecin in quenching experiments: more than 97%
Bound to DMPC liposomes, 0.5M iodide
  F0/F (iodide quenching), DMPC-bound: 4.1
[1]
  dynamic quenching constant Ksv (slope), DMPC-bound: 6.1 M⁻¹ and 6.2 M⁻¹
  static quenching constant V, DMPC-bound: 0 M⁻¹
Free in PBS pH 7.4, 0.5M iodide
  F0/F (iodide quenching), free: about 54.3
Free in PBS, iodide
  dynamic quenching constant Ksv, free: 44.3 M⁻¹

Source: patent US5552156A, “Liposomal and micellular stabilization of camptothecin drugs” (Ohio State University, priority 1995, dated 1996)
